Laboratory results: ChEMBL document CHEMBL6109134, “Discovery of AMG 193, an MTA-Cooperative PRMT5 Inhibitor for the Treatment of MTAP-Deleted Cancers” (J Med Chem, 2025)
Values after ≈ are worked out from the molar mass of the structure shown. Active and inactive are the calls of the source. The calls are words filed in the database; no cut-off is given here.

Columns and labels:
[1] = Toxicity in female athymic nude mouse xenografted with MTAP-deleted human U-87 MG cells assessed as effect on body weight at 10 to 100 mg/kg, po administered once daily for 14 days; type: organism-based; conditions: in vivo, 336 h, dose 10-100 mg/kg, time 14 day
[2] = Toxicity in athymic nude mouse xenografted with MTAP-deleted human BXPC-3 cells assessed as effect on body weight at 10 to 100 mg/kg, po administered once daily for 26 days; type: organism-based; conditions: in vivo, 624 h, dose 10-100 mg/kg, time 26 day
[3] = Metabolic stability in human liver microsomes assessed as intrinsic clearance at 0.5 uM incubated for 40 mins in presence of NADPH; type: ADME, Microsome; conditions: read-out: CLH
[4] = Metabolic stability in mouse liver microsomes assessed as intrinsic clearance at 0.5 uM incubated for 40 mins in presence of NADPH; type: ADME, Microsome; conditions: read-out: CLH
Cytochrome P450 3A4 = Cytochrome P450 3A4 (Homo sapiens, UniProt P08684); assay: Inhibition of CYP3A4 (unknown origin)
HCT-116 [5] = assay: Antitumor activity against human HCT-116 cells harboring wildtype MTAP xenografted in female athymic nude mouse model assessed as tumor growth inhibition at 3 to 100 mg/kg, po administered once daily for 14 days; type: functional, organism-based; conditions: dose 3-100 mg/kg, time 14.0 day
[6] = biological target: DNA (cytosine-5)-methyltransferase 1 (Homo sapiens) (UniProt P26358); assay: Activation of human DNMT1 at 10 uM relative to control
[7] = Mutagenicity in Salmonella typhimurium by Ames test; type: toxicity; conditions: salmonella enterica subsp. enterica serovar typhimurium
[8] = Unbound brain-to-plasma concentration ratio in male Sprague-Dawley rat at 75 mg/kg, po administered as single dose; type: ADME, organism-based; conditions: read-out: K(p,uu,brain)
[9] = Protein binding in mouse plasma assessed as unbound fraction by ultracentrifugation; conditions: plasma
[10] = Antitumor activity against MTAP-deleted human U-87 MG cells xenografted in female athymic nude mouse model assessed as tumor growth inhibition at 300 mg/kg, po administered once daily for 14 days and measured 24 hrs post last dose relative to control; type: functional, U-87MG ATCC; conditions: 360 h, time 15 day, read-out: TGI
human MDR1 (P-gp) = assay: Efflux ratio of permeability across basolateral to apical side over apical to basolateral side in MDCK cells transfected with human MDR1 in absence of elacridar; conditions: dog
[11] = Solubility of compound in PBS buffer at pH 7.4
[12] = Antitumor activity against MTAP-deleted human U-87 MG cells xenografted in female athymic nude mouse model assessed as tumor growth inhibition at 10 mg/kg, po administered once daily for 14 days and measured 24 hrs post last dose relative to control; type: functional, U-87MG ATCC; conditions: 360 h, time 15 day, read-out: TGI
BXPC-3 [13] = assay: Antitumor activity against MTAP-deleted human BXPC-3 cells xenografted in athymic nude mouse model assessed as tumor growth inhibition at 10 mg/kg, po administered once daily for 26 days and measured 24 hrs post last dose relative to control; type: functional; conditions: BXPC-3, 648 h, time 27 day, read-out: TGI
[14] = Passive permeability in MDCK-II cells at 0.1 to 10 uM; type: ADME, cell-based, Canis lupus familiaris; conditions: dog, dose 0.1-10 µM, read-out: permeability
Cytochrome P450 2C9 = Cytochrome P450 2C9 (Homo sapiens, UniProt P11712); assay: Inhibition of CYP2C9 (unknown origin)
[15] = Unbound brain-to-plasma concentration ratio in female Sprague-Dawley rat at 25 mg/kg, po administered as single dose; type: ADME, organism-based; conditions: read-out: K(p,uu,brain)
[16] = biological target: Protein arginine N-methyltransferase 5 (Homo sapiens) (UniProt O14744); assay: In vivo inhibition of PRMT5 in athymic nude mouse xenografted with MTAP-deleted human HCT-116 cells assessed as decrease in SDMA level in tumor at 30 mg/kg, po administered once daily for 4 days and measured 4 hrs post last dose by ELISA relative to control; type: functional, organism-based; conditions: time 4.0 day
HCT-116 [17] = assay: Antiproliferative activity against human HCT-116 cells harboring wildtype MTAP assessed as effect on cell viability incubated for 6 days by Celltiter-Glo luminescent cell viability assay; type: functional, cell-based; conditions: HCT-116, 144 h
HCT-116 [18] = assay: Antitumor activity against MTAP-deleted human HCT-116 cells xenografted in female athymic nude mouse model assessed as tumor growth inhibition at 30 mg/kg, po administered once daily for 14 days relative to control; type: functional; conditions: HCT-116, 336 h, time 14 day, read-out: TGI
[19] = Toxicity in male rat up to 75 mg/kg, po administered as single dose for 14 days; type: organism-based; conditions: in vivo, 336 h, time 14 day
[20] = biological target: Protein arginine N-methyltransferase 5 (Homo sapiens) (UniProt O14744); assay: In vivo inhibition of PRMT5 in athymic nude mouse xenografted with human HCT-116 cells harboring wildtype MTAP assessed as decrease in SDMA level in tumor at 3 mg/kg, po administered once daily for 4 days and measured 4 hrs post last dose by ELISA relative to control; type: functional, organism-based; conditions: time 4.0 day
HCT-116 [21] = assay: Antitumor activity against MTAP-deleted human HCT-116 cells xenografted in female athymic nude mouse model assessed as tumor growth inhibition at 100 mg/kg, po administered once daily for 14 days relative to control; type: functional; conditions: HCT-116, 336 h, time 14 day, read-out: TGI
Cytochrome P450 2D6 = Cytochrome P450 2D6 (Homo sapiens, UniProt P10635); assay: Inhibition of CYP2D6 (unknown origin)
HCT-116 [22] = assay: Antitumor activity against MTAP-deleted human HCT-116 cells xenografted in female athymic nude mouse model assessed as tumor growth inhibition at 10 mg/kg, po administered once daily for 14 days relative to control; type: functional; conditions: HCT-116, 336 h, time 14 day, read-out: TGI
[23] = Metabolic stability in rat liver microsomes assessed as intrinsic clearance; type: ADME, Microsome; conditions: time 40 min, read-out: CLH
[24] = Toxicity in female athymic nude mouse xenografted with human HCT-116 cells harboring wildtype MTAP assessed as body weight change at 3 to 100 mg/kg, po administered once daily for 14 days; type: organism-based; conditions: in vivo, 336 h, dose 3-100 mg/kg, time 14 day
[25] = Metabolic stability in human hepatocytes assessed as intrinsic clearance measured per 10^6 cells; type: ADME, cell-based, Hepatocyte; conditions: read-out: CLH
[26] = Drug uptake in plasma of athymic nude mouse xenografted with MTAP-deleted human BXPC-3 cells at 10 to 100 mg/kg, po administered once daily for 26 days and measured 24 hrs post last dose by LC-SRM/MS analysis; type: ADME, organism-based; conditions: in vivo, 648 h, dose 10-100 mg/kg, time 27 day
HCT-116 [27] = assay: Antiproliferative activity against MTAP-deleted human HCT-116 cells assessed as effect on cell viability incubated for 6 days by Celltiter-Glo luminescent cell viability assay; type: functional, cell-based; conditions: HCT-116, 144 h
[28] = biological target: Protein arginine N-methyltransferase 5 (Homo sapiens) (UniProt O14744); assay: In vivo inhibition of PRMT5 in athymic nude mouse xenografted with MTAP-deleted human HCT-116 cells assessed as decrease in SDMA level in tumor at 100 mg/kg, po administered once daily for 4 days and measured 4 hrs post last dose by ELISA relative to control; type: functional, organism-based; conditions: time 4.0 day
BXPC-3 [29] = assay: Antiproliferative activity against human BXPC-3 cells assessed as effect on cell viability; type: functional, cell-based
CYP3A4 = CYP3A4 (Homo sapiens, UniProt P08684); assay: in vitro; conditions: human liver microsomes, probe midazolam
CYP3A4, sequence (P08684 whole entry): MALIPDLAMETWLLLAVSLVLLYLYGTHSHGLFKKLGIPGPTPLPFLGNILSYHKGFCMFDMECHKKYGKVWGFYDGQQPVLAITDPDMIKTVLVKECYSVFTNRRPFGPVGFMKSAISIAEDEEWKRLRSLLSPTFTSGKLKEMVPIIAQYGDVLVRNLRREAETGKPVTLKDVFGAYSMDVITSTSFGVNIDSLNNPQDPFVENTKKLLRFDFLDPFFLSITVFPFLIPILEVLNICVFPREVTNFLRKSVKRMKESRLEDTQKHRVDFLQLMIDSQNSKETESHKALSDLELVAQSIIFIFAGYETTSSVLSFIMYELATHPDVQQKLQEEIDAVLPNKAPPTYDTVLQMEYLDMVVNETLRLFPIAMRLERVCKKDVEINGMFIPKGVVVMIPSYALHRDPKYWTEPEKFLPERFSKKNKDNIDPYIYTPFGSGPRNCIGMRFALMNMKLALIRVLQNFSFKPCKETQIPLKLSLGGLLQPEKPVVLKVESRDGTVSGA

Protein arginine N-methyltransferase 5 (Homo sapiens), sequence (O14744 whole entry): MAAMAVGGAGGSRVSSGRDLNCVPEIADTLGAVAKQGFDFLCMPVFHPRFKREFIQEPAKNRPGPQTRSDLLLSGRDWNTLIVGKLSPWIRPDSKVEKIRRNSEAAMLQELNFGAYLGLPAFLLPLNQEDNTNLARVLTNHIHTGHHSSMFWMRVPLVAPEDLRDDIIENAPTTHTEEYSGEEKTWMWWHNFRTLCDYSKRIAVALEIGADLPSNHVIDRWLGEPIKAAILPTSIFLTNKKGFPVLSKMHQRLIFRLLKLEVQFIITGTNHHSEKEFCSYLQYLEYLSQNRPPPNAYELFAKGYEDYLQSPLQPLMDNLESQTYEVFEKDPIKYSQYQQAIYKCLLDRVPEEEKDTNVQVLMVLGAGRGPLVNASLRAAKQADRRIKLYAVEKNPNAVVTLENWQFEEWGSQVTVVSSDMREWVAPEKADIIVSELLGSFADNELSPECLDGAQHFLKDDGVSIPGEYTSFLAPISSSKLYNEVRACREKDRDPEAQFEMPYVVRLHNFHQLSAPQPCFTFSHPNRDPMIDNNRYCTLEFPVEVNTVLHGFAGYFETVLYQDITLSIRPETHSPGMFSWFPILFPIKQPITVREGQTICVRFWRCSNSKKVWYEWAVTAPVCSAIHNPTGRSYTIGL
Cytochrome P450 2D6, sequence (P10635 whole entry): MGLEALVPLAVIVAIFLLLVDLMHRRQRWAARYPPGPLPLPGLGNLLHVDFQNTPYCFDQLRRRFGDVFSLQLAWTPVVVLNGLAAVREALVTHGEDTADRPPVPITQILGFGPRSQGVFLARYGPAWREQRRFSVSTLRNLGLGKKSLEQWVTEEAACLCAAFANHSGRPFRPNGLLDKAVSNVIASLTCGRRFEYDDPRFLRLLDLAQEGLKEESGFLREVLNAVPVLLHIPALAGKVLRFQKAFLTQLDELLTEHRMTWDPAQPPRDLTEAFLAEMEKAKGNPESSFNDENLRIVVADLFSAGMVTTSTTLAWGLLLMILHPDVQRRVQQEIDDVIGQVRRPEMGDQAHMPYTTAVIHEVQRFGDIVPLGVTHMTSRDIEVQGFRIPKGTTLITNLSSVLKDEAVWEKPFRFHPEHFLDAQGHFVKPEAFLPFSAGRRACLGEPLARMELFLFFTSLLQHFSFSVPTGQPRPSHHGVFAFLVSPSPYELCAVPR
Cytochrome P450 3A4, sequence (P08684 whole entry): as the sequence (P08684 whole entry) above
Cytochrome P450 2C9, sequence (P11712 whole entry): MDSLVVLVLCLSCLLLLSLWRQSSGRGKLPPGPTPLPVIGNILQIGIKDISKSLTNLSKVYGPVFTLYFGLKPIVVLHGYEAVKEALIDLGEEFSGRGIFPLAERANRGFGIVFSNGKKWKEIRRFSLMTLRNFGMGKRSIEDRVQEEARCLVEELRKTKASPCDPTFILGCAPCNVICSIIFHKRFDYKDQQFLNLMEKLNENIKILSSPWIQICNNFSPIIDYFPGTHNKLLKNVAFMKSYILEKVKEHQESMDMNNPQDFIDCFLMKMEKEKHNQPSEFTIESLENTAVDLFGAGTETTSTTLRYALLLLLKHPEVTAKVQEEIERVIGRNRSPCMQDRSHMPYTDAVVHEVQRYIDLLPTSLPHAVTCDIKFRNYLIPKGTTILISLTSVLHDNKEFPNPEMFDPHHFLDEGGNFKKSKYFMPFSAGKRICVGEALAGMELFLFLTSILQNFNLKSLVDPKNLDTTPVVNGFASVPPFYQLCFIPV
DNA (cytosine-5)-methyltransferase 1 (Homo sapiens), sequence (P26358 whole entry): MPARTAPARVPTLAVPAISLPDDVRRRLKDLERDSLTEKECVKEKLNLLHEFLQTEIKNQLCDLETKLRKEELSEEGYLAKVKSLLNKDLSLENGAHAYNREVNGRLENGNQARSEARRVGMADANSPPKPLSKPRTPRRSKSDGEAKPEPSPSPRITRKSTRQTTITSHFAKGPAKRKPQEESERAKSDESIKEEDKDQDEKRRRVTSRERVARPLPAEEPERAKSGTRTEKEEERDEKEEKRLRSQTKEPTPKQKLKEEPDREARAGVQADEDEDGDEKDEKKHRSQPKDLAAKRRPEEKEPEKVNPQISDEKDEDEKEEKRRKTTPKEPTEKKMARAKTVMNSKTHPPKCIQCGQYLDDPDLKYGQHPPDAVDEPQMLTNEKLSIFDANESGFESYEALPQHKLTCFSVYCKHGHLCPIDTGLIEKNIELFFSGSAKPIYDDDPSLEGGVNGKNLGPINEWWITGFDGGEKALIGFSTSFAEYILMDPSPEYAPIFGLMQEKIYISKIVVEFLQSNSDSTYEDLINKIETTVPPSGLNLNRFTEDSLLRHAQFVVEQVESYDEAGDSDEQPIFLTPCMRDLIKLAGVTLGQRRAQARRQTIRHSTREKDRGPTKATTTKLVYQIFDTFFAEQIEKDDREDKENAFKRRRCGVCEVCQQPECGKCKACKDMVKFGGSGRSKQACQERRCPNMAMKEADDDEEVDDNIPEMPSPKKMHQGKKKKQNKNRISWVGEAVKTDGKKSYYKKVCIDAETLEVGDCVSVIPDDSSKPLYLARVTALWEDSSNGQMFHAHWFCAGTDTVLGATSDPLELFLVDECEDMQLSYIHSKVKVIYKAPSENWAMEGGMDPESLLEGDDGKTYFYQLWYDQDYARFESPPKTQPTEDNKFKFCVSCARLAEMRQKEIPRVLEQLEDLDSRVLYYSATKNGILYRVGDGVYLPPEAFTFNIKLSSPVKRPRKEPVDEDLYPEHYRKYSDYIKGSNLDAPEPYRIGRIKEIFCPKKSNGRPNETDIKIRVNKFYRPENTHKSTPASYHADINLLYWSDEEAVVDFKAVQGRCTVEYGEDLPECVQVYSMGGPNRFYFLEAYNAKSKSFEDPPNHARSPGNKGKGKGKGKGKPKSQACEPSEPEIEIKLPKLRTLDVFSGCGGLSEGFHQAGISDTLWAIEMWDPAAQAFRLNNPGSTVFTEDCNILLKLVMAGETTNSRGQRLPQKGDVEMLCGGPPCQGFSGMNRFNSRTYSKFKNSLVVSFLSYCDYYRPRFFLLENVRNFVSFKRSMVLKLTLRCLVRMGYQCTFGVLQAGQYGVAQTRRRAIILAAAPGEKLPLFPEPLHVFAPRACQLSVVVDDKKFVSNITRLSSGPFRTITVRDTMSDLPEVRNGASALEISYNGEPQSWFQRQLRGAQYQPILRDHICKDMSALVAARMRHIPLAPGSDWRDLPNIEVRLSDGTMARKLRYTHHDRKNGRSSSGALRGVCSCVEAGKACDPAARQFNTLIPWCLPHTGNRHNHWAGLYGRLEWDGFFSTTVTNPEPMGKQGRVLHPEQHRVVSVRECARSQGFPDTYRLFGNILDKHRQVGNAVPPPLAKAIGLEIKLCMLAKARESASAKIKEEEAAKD

microsomal CLint at 0.5 µM [3]: 24 µL/min/mg
microsomal CLint at 0.5 µM [4]: 37 µL/min/mg
IC50 (Cytochrome P450 3A4): 124 µM
Activity [6]: 32%
Kp uu [8]: 0.15
fraction unbound [9]: 0.07
efflux ratio (human MDR1 (P-gp)): 3
solubility [11]: 257 µM (≈ 114 µg/mL)
Papp at up to 10 µM [14]: 330 nm/s
IC50 (Cytochrome P450 2C9): 59 µM
Kp uu [15]: 0.14
inhibition [16]: 72%
IC50 (HCT-116 [17]): 4.33 µM
inhibition [20]: 12%
IC50 (Cytochrome P450 2D6): 117 µM
microsomal CLint at 0.5 µM [23]: 123 µL/min/mg
hepatocyte CLint [25]: 6 µL/min/1e6 cells
Drug uptake [26]: Active
IC50 (HCT-116 [27]): 0.102 µM
inhibition [28]: 71%
IC50 (BXPC-3 [29]): 0.218 µM
inhibition at 30 min, 10 µM (CYP3A4): < 20%
Structure (SMILES): Nc1nc2cnc(C(=O)N3CCOC[C@@H]3c3ccc(C(F)(F)F)cc3)cc2c2c1COC2
Activity [1]: Non-toxic
Activity [2]: Non-toxic
Activity (HCT-116 [5]): inactive
Activity [7]: Non-toxic
inhibition in vivo at 300 mg/kg [10]: 88%
inhibition in vivo at 10 mg/kg [12]: 42%
inhibition in vivo at 10 mg/kg (BXPC-3 [13]): 19%
inhibition in vivo at 30 mg/kg (HCT-116 [18]): 74%
Activity [19]: Non-toxic
inhibition in vivo at 100 mg/kg (HCT-116 [21]): 87%
inhibition in vivo at 10 mg/kg (HCT-116 [22]): 55%
Activity [24]: Non-toxic
